These results are taken from ChEMBL document CHEMBL1201862, “PubChem BioAssay data set” (2004).

For assay [1], the target named is Glyceraldehyde-3-phosphate dehydrogenase (Homo sapiens, UniProt P04406).
The target in assay [2] is T1, Aminopeptidase N (Plasmodium falciparum FcB1/Columbia, UniProt O96935).
T1 sequence (O96935 whole entry): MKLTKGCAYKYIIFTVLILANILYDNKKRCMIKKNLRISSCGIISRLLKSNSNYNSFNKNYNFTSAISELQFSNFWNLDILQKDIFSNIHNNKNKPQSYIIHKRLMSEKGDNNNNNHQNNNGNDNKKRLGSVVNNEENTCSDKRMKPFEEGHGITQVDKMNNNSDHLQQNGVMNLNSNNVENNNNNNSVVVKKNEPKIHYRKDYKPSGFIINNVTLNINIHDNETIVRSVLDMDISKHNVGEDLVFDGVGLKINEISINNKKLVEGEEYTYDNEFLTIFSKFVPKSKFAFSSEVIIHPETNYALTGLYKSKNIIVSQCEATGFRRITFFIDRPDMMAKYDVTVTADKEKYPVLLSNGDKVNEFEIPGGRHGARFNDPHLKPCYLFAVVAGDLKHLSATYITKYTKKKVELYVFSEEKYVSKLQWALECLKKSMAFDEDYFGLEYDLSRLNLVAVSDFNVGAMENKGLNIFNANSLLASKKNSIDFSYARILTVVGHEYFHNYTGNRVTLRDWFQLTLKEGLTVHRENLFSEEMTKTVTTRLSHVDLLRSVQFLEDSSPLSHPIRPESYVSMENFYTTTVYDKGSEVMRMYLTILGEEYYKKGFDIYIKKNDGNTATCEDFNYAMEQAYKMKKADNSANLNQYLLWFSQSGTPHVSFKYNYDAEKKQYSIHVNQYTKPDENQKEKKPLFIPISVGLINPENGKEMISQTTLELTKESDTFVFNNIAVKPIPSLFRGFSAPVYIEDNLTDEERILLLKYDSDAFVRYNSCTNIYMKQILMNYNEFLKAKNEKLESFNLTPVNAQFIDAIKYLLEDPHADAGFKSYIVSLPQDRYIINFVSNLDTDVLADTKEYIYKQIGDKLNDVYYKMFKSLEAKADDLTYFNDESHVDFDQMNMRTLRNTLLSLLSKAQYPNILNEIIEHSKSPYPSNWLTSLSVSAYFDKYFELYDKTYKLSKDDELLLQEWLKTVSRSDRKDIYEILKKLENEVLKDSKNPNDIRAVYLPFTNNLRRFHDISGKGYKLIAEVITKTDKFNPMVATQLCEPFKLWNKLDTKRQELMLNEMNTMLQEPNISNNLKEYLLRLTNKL
Description: malaria alanyl aminopeptidase activity blockers – biochemical, fluorogenic H-Leu-NHMec substrate, 1536-well (AID 1445). On the set-up: species or system Plasmodium falciparum 3D7, 3D7.

For assay [3], the target named is T2, Short transient receptor potential channel 4 (Mus musculus, UniProt Q9QUQ5).
T2 sequence (Q9QUQ5 whole entry): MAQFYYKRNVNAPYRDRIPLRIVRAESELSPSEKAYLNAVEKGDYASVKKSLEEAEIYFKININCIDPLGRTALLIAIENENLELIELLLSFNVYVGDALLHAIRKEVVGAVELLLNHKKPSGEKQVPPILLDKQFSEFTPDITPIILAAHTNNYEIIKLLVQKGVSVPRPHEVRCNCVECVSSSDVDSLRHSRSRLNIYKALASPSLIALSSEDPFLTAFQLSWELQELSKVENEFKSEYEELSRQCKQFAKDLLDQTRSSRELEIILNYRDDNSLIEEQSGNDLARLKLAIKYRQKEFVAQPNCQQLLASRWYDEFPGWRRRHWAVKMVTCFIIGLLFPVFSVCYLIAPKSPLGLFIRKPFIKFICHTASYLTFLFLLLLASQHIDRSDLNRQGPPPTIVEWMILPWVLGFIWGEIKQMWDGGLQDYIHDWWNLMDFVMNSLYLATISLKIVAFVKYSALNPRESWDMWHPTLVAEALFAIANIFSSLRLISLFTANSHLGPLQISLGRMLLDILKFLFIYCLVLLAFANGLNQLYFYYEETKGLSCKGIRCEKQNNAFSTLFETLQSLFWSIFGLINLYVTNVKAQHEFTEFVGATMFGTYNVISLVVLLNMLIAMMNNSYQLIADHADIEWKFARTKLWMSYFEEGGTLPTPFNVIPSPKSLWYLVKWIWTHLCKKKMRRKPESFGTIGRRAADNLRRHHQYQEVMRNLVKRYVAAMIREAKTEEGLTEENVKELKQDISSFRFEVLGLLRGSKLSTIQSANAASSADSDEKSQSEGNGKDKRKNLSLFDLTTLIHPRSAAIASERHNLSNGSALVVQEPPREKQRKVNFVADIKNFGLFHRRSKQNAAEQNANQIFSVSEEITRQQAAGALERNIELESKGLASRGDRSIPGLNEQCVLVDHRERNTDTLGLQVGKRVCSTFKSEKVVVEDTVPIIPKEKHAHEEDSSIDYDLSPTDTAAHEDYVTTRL
Description: block of DAMGO-driven TRPC4 calcium entry – cell-based, HEK293 TRPC4/mu-opioid, Fluo-4 calcium, dose response (AID 434942).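 Note: potency of inhibitors blocking the TRPC4 calcium response.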 The assay is classed as functional.

The target in assay [4] is FAD-linked sulfhydryl oxidase ALR (Homo sapiens, UniProt P55789). Description: ALR-catalysed DTT oxidation blockers – biochemical, H2O2 detection, luminescence, cherry-pick, dose response (AID 493248).
Sequence of FAD-linked sulfhydryl oxidase ALR (P55789 whole entry): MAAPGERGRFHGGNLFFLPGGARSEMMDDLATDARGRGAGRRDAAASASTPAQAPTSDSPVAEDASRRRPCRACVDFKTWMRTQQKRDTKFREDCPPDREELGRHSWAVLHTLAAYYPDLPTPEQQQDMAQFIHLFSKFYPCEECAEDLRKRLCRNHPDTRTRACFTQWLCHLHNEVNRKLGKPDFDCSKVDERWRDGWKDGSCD
In assay [5] the target is T3, High affinity choline transporter 1 (Homo sapiens, UniProt Q9GZV3).
T3 sequence (Q9GZV3 whole entry): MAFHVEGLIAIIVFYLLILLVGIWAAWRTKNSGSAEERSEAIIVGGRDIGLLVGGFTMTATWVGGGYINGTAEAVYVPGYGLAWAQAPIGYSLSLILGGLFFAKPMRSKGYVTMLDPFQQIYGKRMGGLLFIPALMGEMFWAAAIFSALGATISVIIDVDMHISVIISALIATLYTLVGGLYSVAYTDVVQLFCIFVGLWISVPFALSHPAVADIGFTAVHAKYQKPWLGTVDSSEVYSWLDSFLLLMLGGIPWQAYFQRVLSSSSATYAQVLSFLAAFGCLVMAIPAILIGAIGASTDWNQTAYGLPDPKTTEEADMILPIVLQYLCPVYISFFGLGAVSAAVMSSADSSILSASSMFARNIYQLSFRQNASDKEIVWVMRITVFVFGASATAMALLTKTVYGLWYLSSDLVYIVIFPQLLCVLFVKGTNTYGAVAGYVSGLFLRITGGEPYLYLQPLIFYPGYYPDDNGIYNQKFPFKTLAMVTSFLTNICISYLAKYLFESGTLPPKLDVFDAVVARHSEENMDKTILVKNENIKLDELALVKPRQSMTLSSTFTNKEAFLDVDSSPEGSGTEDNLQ
Description: human choline transporter blockers, potency – cell-based, 5-point CRC, membrane potential dye, dose response (AID 504840). The assay is classed as functional.

Assay [6] has as its target Genome polyprotein (dengue virus type 2, UniProt P29990). The assay can be described thus: flavivirus cap methylation enzyme inhibition – biochemical, confirmation dose response, primary screen (AID 588689). The assay is classed as functional.
The nature of assay [7]: cells. The assay is classed as functional, cell-based.
Assay [8] can be described thus: cells. The assay is classed as functional, cell-based. The source holds these as a separate data set.
In assay [9] the target is T4, Heat shock factor protein 1 (Mus musculus, UniProt P38532).
T4 sequence (P38532 whole entry): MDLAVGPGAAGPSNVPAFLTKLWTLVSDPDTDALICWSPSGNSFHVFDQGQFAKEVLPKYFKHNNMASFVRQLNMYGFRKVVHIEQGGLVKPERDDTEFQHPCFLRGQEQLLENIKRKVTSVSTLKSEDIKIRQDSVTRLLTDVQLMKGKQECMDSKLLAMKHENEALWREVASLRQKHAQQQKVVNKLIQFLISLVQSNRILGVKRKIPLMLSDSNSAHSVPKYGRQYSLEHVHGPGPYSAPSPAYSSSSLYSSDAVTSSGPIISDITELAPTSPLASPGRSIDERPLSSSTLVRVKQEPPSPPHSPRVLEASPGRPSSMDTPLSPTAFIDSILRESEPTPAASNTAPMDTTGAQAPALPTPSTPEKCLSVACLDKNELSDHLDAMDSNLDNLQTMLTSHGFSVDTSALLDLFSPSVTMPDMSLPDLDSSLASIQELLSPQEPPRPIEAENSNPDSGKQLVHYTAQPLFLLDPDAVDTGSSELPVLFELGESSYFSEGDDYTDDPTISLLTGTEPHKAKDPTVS
Description: decrease of HSF1-responsive luciferase luminescence – cell-based, NIH3T3, dose retest, confirmation (AID 2382).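 Note: NIH3T3 fibroblasts with HSF1-driven luciferase reporter stressed by proteasome inhibitor MG132; luminescence from HSF1-driven luciferase expression after 8 hours of MG132 stress.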 Format: functional.

The nature of assay [10]: OVCAR-3 cell viability loss – plate reader, dry powder samples, PAX8 inhibitor project, dose response (AID 743044). The assay is classed as functional, cell-based.
For assay [11], the target named is Paired box protein Pax-8 (Homo sapiens, UniProt Q06710). The assay can be described thus: PAX8 transcriptional activity inhibition in RMG-I – RMG-I cells, luciferase, cherry-pick, dose response (AID 687027).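 Note: luciferase reporter driven by Pax8 target thyroperoxidase promoter measured by SteadyGlo luminescence.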 The assay is classed as functional, cell-based.
Sequence of Paired box protein Pax-8 (Q06710 whole entry): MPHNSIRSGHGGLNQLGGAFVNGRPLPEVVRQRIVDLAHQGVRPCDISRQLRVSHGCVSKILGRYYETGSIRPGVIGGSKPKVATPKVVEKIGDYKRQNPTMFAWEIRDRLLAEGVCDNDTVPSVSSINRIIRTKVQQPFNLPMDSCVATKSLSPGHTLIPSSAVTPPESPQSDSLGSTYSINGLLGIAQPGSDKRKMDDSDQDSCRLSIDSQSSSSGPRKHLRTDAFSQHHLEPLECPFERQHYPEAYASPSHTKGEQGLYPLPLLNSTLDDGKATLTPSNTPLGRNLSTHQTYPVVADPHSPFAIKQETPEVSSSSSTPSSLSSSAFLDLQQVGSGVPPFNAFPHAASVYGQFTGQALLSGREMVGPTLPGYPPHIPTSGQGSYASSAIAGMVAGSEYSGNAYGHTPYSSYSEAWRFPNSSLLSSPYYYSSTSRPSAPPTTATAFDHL
The nature of assay [12]: P. falciparum Dd2 growth inhibitors, dose response, SYBR Green, cherry-picked samples (AID 1159567). Format: functional, cell-based.

Usually IC50 stands for the midpoint of a concentration-inhibition curve. As usually defined, the EC50 is the concentration at which the effect is half-maximal. As a reminder, the AC50 is the midpoint of the concentration-response curve, whichever way the signal moves.

Activity calls are given as the source filed them. Some results are limits rather than exact numbers.

Sequence of Glyceraldehyde-3-phosphate dehydrogenase (P04406 whole entry): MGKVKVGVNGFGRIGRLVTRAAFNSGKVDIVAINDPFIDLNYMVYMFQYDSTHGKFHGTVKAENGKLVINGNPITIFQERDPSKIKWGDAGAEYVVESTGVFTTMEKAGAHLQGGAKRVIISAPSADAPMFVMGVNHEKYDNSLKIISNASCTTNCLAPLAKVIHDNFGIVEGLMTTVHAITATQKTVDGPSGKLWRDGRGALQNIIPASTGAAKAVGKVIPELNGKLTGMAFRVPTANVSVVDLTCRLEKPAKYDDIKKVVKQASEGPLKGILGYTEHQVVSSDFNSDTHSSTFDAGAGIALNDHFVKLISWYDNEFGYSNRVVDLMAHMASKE
Sequence of Genome polyprotein (P29990 2492-3391 limits assumed): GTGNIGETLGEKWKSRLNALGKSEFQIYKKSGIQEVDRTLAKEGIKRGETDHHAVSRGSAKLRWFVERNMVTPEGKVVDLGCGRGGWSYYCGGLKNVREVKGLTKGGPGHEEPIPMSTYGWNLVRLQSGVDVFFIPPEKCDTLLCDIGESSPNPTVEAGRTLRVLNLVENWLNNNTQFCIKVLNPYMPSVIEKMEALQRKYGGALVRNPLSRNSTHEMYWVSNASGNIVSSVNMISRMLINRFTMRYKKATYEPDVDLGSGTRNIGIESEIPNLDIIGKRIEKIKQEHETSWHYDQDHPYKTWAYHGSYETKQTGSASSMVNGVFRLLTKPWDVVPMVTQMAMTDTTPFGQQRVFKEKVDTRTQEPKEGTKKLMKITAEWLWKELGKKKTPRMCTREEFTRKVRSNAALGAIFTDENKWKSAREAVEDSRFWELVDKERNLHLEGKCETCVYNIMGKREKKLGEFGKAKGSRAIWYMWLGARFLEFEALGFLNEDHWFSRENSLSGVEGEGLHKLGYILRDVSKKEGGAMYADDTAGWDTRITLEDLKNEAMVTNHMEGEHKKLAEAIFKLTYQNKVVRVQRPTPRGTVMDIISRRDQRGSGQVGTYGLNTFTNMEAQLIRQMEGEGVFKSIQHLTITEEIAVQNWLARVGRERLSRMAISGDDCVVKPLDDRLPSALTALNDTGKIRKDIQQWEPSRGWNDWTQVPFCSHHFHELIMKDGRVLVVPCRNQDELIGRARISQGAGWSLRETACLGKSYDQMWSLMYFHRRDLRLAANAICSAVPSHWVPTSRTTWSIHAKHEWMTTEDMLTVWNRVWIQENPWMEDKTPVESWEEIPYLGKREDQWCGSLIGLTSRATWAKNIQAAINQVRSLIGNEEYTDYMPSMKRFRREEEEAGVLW

Turning to `COc1cccc(N2C(=O)C(Cl)=C(N3CCN(c4ncccn4)CC3)C2=O)c1`, in assay [1], the IC50 was > 50 µM (inconclusive).
For the compound `CCCCCCC(=O)N(O)C1CC(=O)N(c2ccccc2)C1=O` (stereo unspecified), in assay [2], the IC50 is 66.5 µM (active).
For `c1ccc(Nc2[nH]nnc2-c2ccccc2)cc1`, the EC50 in assay [3] was 1.88 µM (active). Also, the AC50 in [4] was > 100 µM (inactive).
Regarding `CCC1=Nc2cc(C(=O)N3CCC4(CC3)OCCO4)ccc2Sc2ccc(C)cc21`, the EC50 in assay [3] is 7.5 µM (active).
For `COc1ccc(N2CCN(C3=C(Cl)C(=O)N(c4cccc(C(F)(F)F)c4)C3=O)CC2)cc1`, the IC50 in [1] is > 50 µM (inconclusive).
On to `Cc1c(N2C(=O)C(O)=C(C(=O)c3ccc(Br)cc3)C2c2cccnc2)c(=O)n(-c2ccccc2)n1C` (stereo unspecified), for which, in assay [2], the IC50 is 38.1 µM (active).
Consider `S=C(NCCCN1CCOCC1)Nc1cccc(-c2nnc3n2CCCCC3)c1`, for which the IC50 in assay [5] is 13.9 µM (active).
On to `O=C(O)C(c1ccccc1)N1C(=O)/C(=C/c2cccs2)SC1=S` (stereo unspecified), for which the IC50 was 57.7 µM (active) in assay [2] and 46.9 µM (active) in assay [6].
On to `CN1CCN(c2ccc(NC(=O)c3ccc(Br)o3)cc2)CC1`, for which, in assay [3], the EC50 was 0.841 µM (active).
`CC(C)=CCN1CCN(Cc2cn(C(C)C)c3ccccc23)CC1CCO` (stereo unspecified): the IC50 in [5] is 13.2 µM (active).
Consider `CCOC(=O)c1sc(NC(=O)CCN2CCN(C)CC2)c(C(=O)OCC)c1C`, for which the half-inhibitory concentration (IC50) in [5] is 14.5 µM (active).
Turning to `O=C(CCc1ccccc1)Nc1ccnn1C1CCN(C/C=C/c2ccccc2)CC1`, the results for the EC50 in [3], in assay [7] and in [8] were 1.5 µM (active), > 350 µM (not active) and > 350 µM (not active), respectively.
As to `COc1cccc(OC)c1OCCCCCc1c(C)n[nH]c1C`, in assay [5], the IC50 was 9.12 µM (active).
For `Cc1cc(OCC(=O)Nc2ccc(N3CCN(C)CC3)cc2)ccc1Cl`, the EC50 in assay [3] was 2.66 µM (active).
With `CC1CCN(S(=O)(=O)c2ccc3c(c2)N(CC(=O)NCCN2C(C)CCCC2C)C(=O)CS3)CC1` (stereo unspecified), the IC50 in assay [5] was 11.3 µM (active).
For the compound `COc1ccc(OCC(=O)N2CCN(C(=O)COc3ccc(Br)cc3)CC2)cc1`, the IC50 in assay [2] was 59.2 µM (active).
Regarding `O=C(O)c1cccc(NC(=S)NC(NC(=O)c2ccco2)C(Cl)(Cl)Cl)c1` (stereo unspecified), the IC50 in assay [2] was 39.9 µM (active). In assay [9], the EC50 is recorded as > 195 µM (not active).
With `O=C(C[C@@H]1CC[C@@H]2[C@H](COC[C@@H](O)CN2S(=O)(=O)c2cccc(Cl)c2)O1)Nc1ccc(-c2ccccc2)cc1`, the results for the AC50 in assay [10] and in assay [11] were 18.9 µM (active) and 9.62 µM (active), respectively.
In the case of `Cc1ccccc1S(=O)(=O)N(C)C[C@H]1OCc2ccccc2-c2ccccc2C(=O)N([C@@H](C)CO)C[C@H]1C`, the AC50 in [12] is 20.9 µM (active).
In the case of `N#Cc1cccc(-c2ccc3c(c2)[C@H]2[C@H](CCN2C(=O)c2ccncc2)[C@H](CO)N3)c1`, the AC50 in [12] was 7.86 µM (active).
